Laboratory results from patent US8110681B2, “Compounds for the treatment of spinal muscular atrophy and other uses” (The United States of America as represented by the …, priority 2006, dated 2012).
Read-outs that look alike come from different tables or passages of the source.

System: SMN2-linked luciferase-reporter gene construct
Test: SMN splice reporter assay (SMN2-linked luciferase reporter, Example 10)
Assay type: cell-based
Details: for EC50: SMN2-linked luciferase reporter
Description: Cervical carcinoma cell lines were transformed with a SMN2-linked luciferase-reporter gene construct. The reporter is designed to detect shifts in the alternative splicing of SMN2 sequences. In particular, the reporter is constructed as a fusion of the alternatively spliced sequences of the SMN2 gene and the luciferase gene. Luciferase sequences are in the correct translational reading frame only when the SMN2 sequences are spliced according to the normal SMN1 mechanism (e.g., splicing to include exon 7), which allows for translation of the stable SMN protein. Compounds were tested in the assay by administering the compound to the cell line and detecting an increase in the luciferase activity. The assay is described in greater detail in Zhang et al., Gene Ther., 8, 1532-8 (2001). Compounds were administered as described in Lunn et al, Chem. & Biol, 11, 1489-1493 (2004).
The results are reported as a fold-increase over a baseline reading of transformed cells without any test compound.

[1] = maximum fold increase of reporter signal, average, read-out: SMN Splice Reporter Assay (Example 10) Avg MaxFold Increase

Row | EC50 (average) | SMILES | maximal fold induction [1] | maximal fold induction (read-out: SMN Splice Reporter Assay (Example 10) Avg MaxFold Increase, maximum fold increase of reporter signal, average, heading: SMN Splice Reporter Assay Avg MaxFold Increase)
1 |  | CC(C(=O)O)c1ccc(N2Cc3ccccc3C2=O)c(-c2cncnc2)c1 (centres unmarked) [ALB-112231] | 1.08 | 
2 |  | CC(C(=O)O)c1ccc(N2Cc3ccccc3C2=O)cc1-c1cncnc1 (centres unmarked) [ALB-112232] | 1.05 | 
3 |  | CC(C(=O)O)c1ccc(N2Cc3ccccc3C2=O)c(-c2cccs2)c1 (centres unmarked) [ALB-112233] | 1.03 | 
4 | 25400 nM | CC(C(=O)O)c1ccc(N2Cc3ccccc3C2=O)cc1-c1ccccc1 (centres unmarked) [ALB-112234] | 1.26 | 
5 |  | O=C(O)Cc1ccc(N2Cc3ccccc3C2=O)cc1 [ALB-112235] | 0.941 | 
6 | 4210 nM | CC(C(=O)OC(C)(C)C)c1ccc(N2Cc3ccc(Br)cc3C2=O)cc1 (centres unmarked) [ALB-112327] | 1.47 | 
7 |  | CC(C(=O)OC(C)(C)C)c1ccc(N2Cc3ccccc3C2=O)cc1-c1ccc(Cl)cc1 (centres unmarked) [ALB-112328] | 1.04 | 
8 |  | CC(C(=O)O)c1ccc(N2Cc3ccccc3C2=O)cc1-c1ccc(Cl)cc1 (centres unmarked) [ALB-112329] | 1.09 | 
9 | 259 nM | CC(C#N)c1ccc(N2Cc3ccccc3C2=O)cc1 (centres unmarked) [ALB-112330] | 1.46 | 
10 |  | CC(C(=O)OC(C)(C)C)c1ccc(N2Cc3c(cccc3-c3cncnc3)C2=O)cc1 (centres unmarked) [ALB-112349] | 1.06 | 
11 |  | CC(C(=O)OC(C)(C)C)c1ccc(N2Cc3c(C#N)cccc3C2=O)cc1 (centres unmarked) [ALB-112350] | 1.18 | 
12 |  | CC(C(=O)O)c1ccc(N2Cc3c(C#N)cccc3C2=O)cc1 (centres unmarked) [ALB-112351] | 1.21 | 
13 | 130 nM | CC(C(=O)O)c1ccc(N2Cc3ccc(Br)cc3C2=O)cc1 (centres unmarked) [ALB-112352] |  | 1.12
14 | 16000 nM | CC(C(=O)O)c1ccc(N2Cc3c(cccc3-c3cncnc3)C2=O)cc1 (centres unmarked) [ALB-112353] | 1.53 | 
15 | 424 nM | CC(=O)c1ccc(N2Cc3ccccc3C2=O)cc1 [ALB-112360] | 1.14 | 
16 |  | CC(C(=O)OC(C)(C)C)c1cccc(N2Cc3ccccc3C2=O)c1 (centres unmarked) [ALB-112361] | 1.09 | 
17 |  | CC(C)(C)OC(=O)C1(c2ccc(N3Cc4ccccc4C3=O)cc2)CCCC1 [ALB-112362] | 1.05 | 
18 | 3260 nM | CCC(C(=O)OC(C)(C)C)c1ccc(N2Cc3ccccc3C2=O)cc1 (centres unmarked) [ALB-112364] | 1.21 | 
19 | 12400 nM | CC(C)(C)OC(=O)C1(c2ccc(N3Cc4ccccc4C3=O)cc2)CC1 [ALB-112365] | 1.5 | 

Row | EC50 (average) | SMILES | maximal fold induction [1] | maximal fold induction (read-out: SMN Splice Reporter Assay (Example 10) Avg MaxFold Increase, maximum fold increase of reporter signal, average, heading: SMN Splice Reporter Assay Avg MaxFold Increase)
20 |  | O=C1c2ccccc2CN1c1ccc(C2(C(=O)O)CCCC2)cc1 [ALB-112431] | 1.21 | 
21 | 4180 nM | CCC(C(=O)O)c1ccc(N2Cc3ccccc3C2=O)cc1 (centres unmarked) [ALB-112433] | 1.32 | 
22 |  | O=C1c2ccccc2CN1c1ccc(C2(C(=O)O)CC2)cc1 [ALB-112434] | 1.28 | 
23 | 5980 nM | CC(C(=O)OC(C)(C)C)c1ccc(N2Cc3ccccc3C2=O)cc1C#N (centres unmarked) [ALB-112435] | 1.2 | 
24 |  | CC(C(=O)OC(C)(C)C)c1ccc(N2Cc3ccccc3C2=O)c(C#N)c1 (centres unmarked) [ALB-112436] | 1.07 | 
25 |  | CC(C(=O)O)c1ccc(N2Cc3ccccc3C2=O)cc1C#N (centres unmarked) [ALB-112437] | 1.09 | 
26 | 2710 nM | Cc1cc(N2Cc3ccccc3C2=O)ccc1C(C)C(=O)OC(C)(C)C (centres unmarked) [ALB-112438] | 1.42 | 
27 |  | CC(C(=O)OC(C)(C)C)c1ccc(N2Cc3ccc(-c4ccccc4)cc3C2=O)cc1 (centres unmarked) [ALB-112441] | 1.08 | 
28 |  | Cc1ccc(-c2ccc3c(c2)C(=O)N(c2ccc(C(C)C(=O)OC(C)(C)C)cc2)C3)cc1 (centres unmarked) [ALB-112442] | 1.11 | 
29 |  | CC(C(=O)OC(C)(C)C)c1ccc(N2Cc3ccc(-c4ccc(Cl)cc4)cc3C2=O)cc1 (centres unmarked) [ALB-112443] | 1.07 | 
30 | 307 nM | CC(C(=O)OC(C)(C)C)c1ccc(N2Cc3cc(C#N)ccc3C2=O)cc1 (centres unmarked) [ALB-112444] | 1.04 | 
31 |  | CC(C(=O)OC(C)(C)C)c1ccc(N2Cc3ccc(C#N)cc3C2=O)cc1 (centres unmarked) [ALB-112445] | 1.13 | 
32 | 1700 nM | CC(C(=O)O)c1ccc(N2Cc3ccc(-c4ccccc4)cc3C2=O)cc1 (centres unmarked) [ALB-112446] | 1.45 | 
33 | 2020 nM | Cc1ccc(-c2ccc3c(c2)C(=O)N(c2ccc(C(C)C(=O)O)cc2)C3)cc1 (centres unmarked) [ALB-112447] | 1.27 | 
34 | 6190 nM | COc1ccc(-c2ccc3c(c2)C(=O)N(c2ccc(C(C)C(=O)O)cc2)C3)cc1 (centres unmarked) [ALB-112448] | 1.55 | 
35 |  | CC(C(=O)O)c1ccc(N2Cc3ccc(-c4ccc(Cl)cc4)cc3C2=O)cc1 (centres unmarked) [ALB-112449] | 1.16 | 
36 |  | COc1ccc(-c2ccc3c(c2)C(=O)N(c2ccc(C(C)C(=O)OC(C)(C)C)cc2)C3)cc1 (centres unmarked) [ALB-112450] | 1.09 | 
37 |  | CC(C(=O)OC(C)(C)C)c1ccc(N2Cc3cccc(C#N)c3C2=O)cc1 (centres unmarked) [ALB-112472] | 1.12 | 
38 | 2 nM | CC(C(=O)OC(C)(C)C)c1ccc(N2Cc3ccc(-c4cccnc4)cc3C2=O)cc1 (centres unmarked) [ALB-112473] | 1.03 | 

Row | EC50 (average) | SMILES | maximal fold induction [1] | maximal fold induction (read-out: SMN Splice Reporter Assay (Example 10) Avg MaxFold Increase, maximum fold increase of reporter signal, average, heading: SMN Splice Reporter Assay Avg MaxFold Increase)
39 |  | CC(C(=O)OC(C)(C)C)c1ccc(N2Cc3ccc(-c4cccs4)cc3C2=O)cc1 (centres unmarked) [ALB-112474] | 1.18 | 
40 | 114 nM | CC(C(=O)OC(C)(C)C)c1ccc(N2Cc3ccc(-c4ccc(Cl)c(Cl)c4)cc3C2=O)cc1 (centres unmarked) [ALB-112475] | 1.05 | 
41 |  | CC(C(=O)OC(C)(C)C)c1ccc(N2Cc3ccc(-c4cncnc4)cc3C2=O)cc1 (centres unmarked) [ALB-112476] | 1.08 | 
42 | 6980 nM | CC(C(=O)O)c1ccc(N2Cc3cc(C#N)ccc3C2=O)cc1 (centres unmarked) [ALB-112477] | 1.18 | 
43 | 2040 nM | CC(C(=O)O)c1ccc(N2Cc3ccc(C#N)cc3C2=O)cc1 (centres unmarked) [ALB-112478] | 1.23 | 
44 |  | Cc1cc(C(C)C(=O)OC(C)(C)C)ccc1N1Cc2ccccc2C1=O (centres unmarked) [ALB-112483] | 1.03 | 
45 |  | Cc1cc(N2Cc3ccccc3C2=O)ccc1C(C)C(=O)O (centres unmarked) [ALB-112485] | 1.3 | 
46 |  | Cc1cc(C(C)C(=O)O)ccc1N1Cc2ccccc2C1=O (centres unmarked) [ALB-112487] | 1.17 | 
47 |  | CC(C(=O)O)c1ccc(N2Cc3ccc(-c4cccnc4)cc3C2=O)cc1 (centres unmarked) [ALB-112514] | 1.25 | 
48 | 494 nM | CC(C(=O)O)c1ccc(N2Cc3ccc(-c4cccs4)cc3C2=O)cc1 (centres unmarked) [ALB-112515] | 1.62 | 
49 |  | CC(C(=O)O)c1ccc(N2Cc3ccc(-c4ccc(Cl)c(Cl)c4)cc3C2=O)cc1 (centres unmarked) [ALB-112516] | 1.2 | 
50 |  | CC(C(=O)O)c1ccc(N2Cc3ccc(-c4cncnc4)cc3C2=O)cc1 (centres unmarked) [ALB-112517] | 1.25 | 
51 |  | CC(C(=O)O)c1ccc(N2Cc3cccc(C#N)c3C2=O)cc1 (centres unmarked) [ALB-112518] | 1.12 | 
52 |  | CC(C(=O)O)c1ccc(N2Cc3cc(N4CCOCC4)ccc3C2=O)cc1 (centres unmarked) [ALB-112554] | 1.06 | 
53 | 5900 nM | Cc1cccc2c1CN(c1ccc(C(C)C(=O)O)cc1)C2=O (centres unmarked) [ALB-112555] | 1.64 | 
54 | 146 nM | Cc1ccc2c(c1)CN(c1ccc(C(C)C(=O)O)cc1)C2=O (centres unmarked) [ALB-112556] | 1.56 | 
55 | 288 nM | Cc1cccc2c1C(=O)N(c1ccc(C(C)C(=O)O)cc1)C2 (centres unmarked) [ALB-112557] | 1.73 | 
56 | 8540 nM | C[C@H](C(=O)O)c1ccc(N2Cc3ccccc3C2=O)cc1 [ALB-112837] | 1.4 | 
